Test results: patent US9309224B2 (Deciphera Pharmaceuticals, LLC, priority 2013, dated 2016)

Tested on: PC-3 M-luc cells
Experiment: PC-3 peritibial implant model of cancer bone metastasis
Assay type: in vivo, mouse
Settings: oral gavage twice daily; score 0-4; vehicle-treated animals score 4
Description: PC-3 Peritibial Implant Model of Cancer Bone Metastasis To evaluate in vivo anti-cancer activity of compounds of formula I, the PC-3 M-luc peritibial injection model of bone invasiveness model was employed. Briefly, PC-3 M-luc cells were obtained from Xenogen Corporation (Caliper Life Sciences) and expanded using MEM media modified with L-Glutamine (Cell Gro® #10-045-CV) supplemented with 10% fetal bovine serum, 1% penicillin-streptomycin-glutamine, 1% non-essential amino acids, and 1% MEM vitamins in 5% CO2 atmosphere at 37° C. Six to 7 week old male nude mice (Crl:NU-Foxn1nu) were obtained from Charles River Laboratories. Test mice were implanted peritibially on Day 0 with 1×10^6 cells/mouse (0.1 mL) using an insulin syringe with a fixed 28-gauge needle. The needle was inserted at the ankle between the tibia and fibula until the bevel of the needle reaches approximately half way between the knee and ankle Treatments began on Day 0. Animals were dosed by oral gavage twice daily for the study duration. All procedures carried out in this experiment were conducted in compliance with all the laws, regulations and guidelines of the National Institutes of Health (NIH). […] Lesions in the right hind limb were scored with values of 0, 1, 2, 3, or 4 based on a qualitative assessment of lesion size as defined by: 0: Normal Bone 1: Minimal lesions. […]

Work on `CN1CCN(C(=O)Nc2cc(Oc3ccc(NC(=O)NC(=O)C(C)(C)C)nc3)ccn2)CC1` [Example 45, 4-methyl-N-(4-((6-(3-pivaloylureido)pyridin-3-yl)oxy)pyridin-2-yl)piperazine-1-carboxamide] yielded a lesion score of 3.
